Laboratory results published in US20110230447A1, “OSTEOGENESIS PROMOTER COMPRISING [4-(METHYLTHIO)PHENYLTHIO]METHANEBISPHOSPHONIC ACID OR PHARMACEUTICALLY ACCEPTABLE SALT THEREOF AS ACTIVE INGREDIENT” (Tohoku University, priority 2008, published 2011).
“Also recorded” adds a separate entry of the source.

Columns and labels:
[1] = test system: calvariae (bone organ culture system of a mouse); test: Bone organ culture system of mouse calvariae, staining and confocal laser scanning microscopy; format: cell-based; details: for production of collagen (type I collagen fibers): MPMBP 100 μM, alendronate 2.0 μM, no heparin, vs control bone (FIG. 9); for production of the type I collagen / bone matrix: zoledronate 2.5 μM compared with MPMBP, presence or absence of LPS (FIG. 8); for bone resorption resulting from LPS, size of the resorption cavity: Nomarski images
Description: Using the bone organ culture system, what kind of effects MPMBP has on production of the bone matrix was studied. From 3-6 day old mice, calvariae were collected aseptically. These were cultured using the Stern and Krieger method (Calcif Tissue hit 1983; 35: 172-17) with DMEM (10% bovine serum supplementation, no supplementation of heparin, supplementation or no supplementation of LPS 10 μg/ml) for 48 hours. After completion of culturing, with the method described by Suzuki, Takeyama et al (J Histochem Cytochem 2005; 53: 1525-1537), a double staining of the type I collagen and alkaline phosphatase (FIG. 6 and FIG. 8), a double staining of the type I collagen and alizarin red (FIG. 7), and an immunohistochemical staining using the type I collagen (FIG. 9) were performed, and using a confocal laser scanning microscope, they were observed.
The upper panels are Nomarski differential interference contrast images of the bone surface. The middle panels are images of the bone surface after the double staining of the type I collagen and alkaline phosphatase was performed, and the lower panels are images of the bone section after the double staining of the type I collagen and alkaline phosphatase was performed, respectively. Using rhodamine for the type I collagen, red color could be observed, and using a substrate (ELF-97) that fluoresces when dephosphorylated for alkaline phosphatase (stain osteoblasts), the enzyme activity could be observed in green color.
The upper panels are Nomarski differential interference contrast images of the bone surface. […] The lower panels are images of the bone section after the double staining of the type I collagen and alizarin red was performed, and the collagen fibers could be observed in green color resulting from Alexa Fluor-488 and the bone mineral could be observed in red color resulting from alizarin red.
After the immunological double staining of the type I collagen and alkaline phosphatase was performed, as was the case with FIG. 6, using Alexa Fluor 594 for the type I collagen, it was stained in red color, and using the substrate (ELF-97) that fluoresces when dephosphorylated for alkaline phosphatase (osteoblasts), the enzyme activity was stained in green color. The upper panels are observation images of the bone surface and the lower panels are images of the bone section.

MC3T3-E1 cells [2] = test: Expression of osteogenesis-related genes in MC3T3-E1 cells by real-time RT-PCR; format: cell-based, mouse
Source text: As an experiment to clarify the mechanism of the osteogenesis promoting action of MPMBP, using the osteoblast-based cell line MC3T3-E1 cells, the effect on expression of osteogenesis-related genes was studied using the real-time RT-PCR method. Moreover, the effect was compared with the action of zoledronate.
In the experiment, the osteoblast-based cell line MC3T3-E1 cells that reached the confluent after cultured with α-MEM (10% bovine serum supplementation) were used. For 3 days, they were cultured (used a dish with the diameter of 60 mm) under the presence of MPMBP (1, 10, or 100 μM) or zoledronate (0.1, 0.5 or 2.00 μM). After completion of culturing, cells were scraped and using Trizol, RNA was extracted. From 5 μg of RNA, cDNA was synthesized, specific primers were set with respect to alkaline phosphatase, the type I-α collagen, osteocalcin, and bone sialoprotein genes, PCR amplification was performed in the thermal cycler, and the amount of expression of the above genes was measured.

MC3T3-E1 cells [3] = test: Alkaline phosphatase (ALP) activity in osteoblast-like MC3T3-E1 cells; format: cell-based, mouse
Description: FIG. 4 is an effect of MPMBP (1, 10, and 100 μM) on the osteoblast lineage cell lines MC3T3-E1 cells.
FIG. 5 is an effect of bisphosphonate ([…] bisphosphonate, namely pamidronate, incadronate, and zoledronate. Respectively, 0.1, 1, and 10 μM) on the osteoblast-like cell line MC3T3-E1 cells.
Using the mouse skull-derived osteoblast-like cell line MC3T3-E1 cells (RIKEN Bio Resource Center, CELL BANK: RCB 1126), with respect to the alkaline phosphatase (ALP) activity, known as one index of osteogenesis, and also known as the index of differentiation of osteoblast precursor cells to osteoblasts, what kind of effects MPMBP has was studied. After MC3T3-E1 cells were cultured in a α-MEM (10% bovine serum supplementation) and after the confluent was reached, under the presence or absence of MPMBP (1, 10, and 100 μM), for 6, 10, or 20 days, they were cultured in the culture plate of 48 wells. After completion of culturing, a cell homogenate was prepared, and using the method by Lowry et al (J Biochem 1954; 207: 19-37), the ALP activity (per well) was measured.

[4] = test system: maxillary alveolar bone of a rabbit; test: Local subperiosteal injection at the maxillary alveolar bone of rabbits, pQCT and μCT analysis; format: in vivo
Description: FIG. 2 is a proliferation of the bone induced on the maxillary alveolar bone of a rabbit resulting from local administration of MPMBP (administration of a 1 mM or 10 mM solution every 4 days for 6 times). (pQCT: peripheral Quantitative Computerized Tomography image). A horizontal section in the vicinity of the cervical site of the maxillary molar teeth. Exp: A test side (side to which MPMBP was administered), cont: a control side (side to which 0.9% NaCl was administered). Arrows represent injected sites.
FIG. 3 is a proliferation of the bone induced on the maxillary alveolar bone of a rabbit resulting from local administration of MPMBP (administration of a 1 mM or 10 mM solution every 4 days for 6 times) (μCT image: microfocus Computerized Tomography image). A forehead cut of the midline region of the right and left maxillary first molars. exp: A test side (side to which MPMBP was administered). cont: A control side (side to which 0.9% NaCl was administered).
A total of 9 Japanese male rabbits with the average weight of 2.2 kg were used and they were divided into 3 groups of 3 rabbits each. Under the periosteum of the palatal alveolar bone between the teeth of the maxillary first molar and the maxillary second molar on the left side (experiment side) of the domestic rabbits in each group, 50 μl of a 0.1, 1.0, or 10 mM MPMBP solution was injected every 4 days for 6 times (all performed under anesthesia using Nembutal). To the same sites on the opposite side (the right side), 50 μl of a physiological saline solution (0.9% NaCl solution) was injected in the same manner, and was set to be a control. On the 4th day after the final injection, the animals were euthanized with excessive administration of Nembutal, and the maxillary bone was removed and fixed with a 10% neutral formalin solution (pH 7.4). With the alveolar bone in the vicinity of drug administration sites and the palatine bone as the region of interest, 3-dimensional analysis was performed using a pQCT (peripheral Quantitative Computerized Tomography; FIG. 2) and a μCT (microfocus Computerized Tomography; FIG. 3). […] This type of the osteogenesis promoting effect of MPMBP in the living body has not been reported with the existing bisphosphonate compound.

[5] = 0.1, 1 and 10 μM, culture up to 3 weeks (FIG. 5)
[6] = 1, 10 and 100 μM, cultured 6, 10 or 20 days (FIG. 4)
[7] = 50 μl of 1.0 mM or 10 mM solution under the periosteum every 4 days for 6 times, vs 0.9% NaCl on the opposite side

With NCCCC(O)(P(=O)(O)O)P(=O)(O)O [alendronate, reference compound] the “production of collagen (type I collagen fibers)” value ([1]; 48 hours) was “production of the collagen increased were observed; however, the degree was small, compared to MPMBP”.

O=P(O)(O)C(O)(Cn1ccnc1)P(=O)(O)O [zoledronate, reference compound] was tested, and the “expression of alkaline phosphatase, type I-α collagen, osteocalcin and bone sialoprotein genes” value (MC3T3-E1 cells [2]; zoledronate 0.1, 0.5 or 2.00 μM, 3 days (FIG. 11)) was “no significant change was caused to the amount of expression of these genes”, the “expression of alkaline phosphatase, type I-α collagen, osteocalcin and bone sialoprotein genes” value (MC3T3-E1 cells [2]; zoledronate 0.1, 0.5 or 2.00 μM, 3 days (FIG. 11), listed as Zoledronate) was “did not significantly affect gene expression of all of the above” and the “production of the type I collagen / bone matrix” value ([1]; 48 hours) was “inhibited production of the type I collagen”. The “ALP activity (per well)” value (MC3T3-E1 cells [3]; [5]) was “the alkaline phosphatase activity is inhibited or the alkaline phosphatase activity is not affected; also recorded: the ALP activity was significantly reduced in high concentration”.

In the case of O=P(O)(O)C(NC1CCCCCC1)P(=O)(O)O [incadronate], the “ALP activity (per well)” value (MC3T3-E1 cells [3]; [5]) is reported as “the alkaline phosphatase activity is inhibited or the alkaline phosphatase activity is not affected; also recorded: the ALP activity was significantly reduced in high concentration”.

NCCC(O)(P(=O)(O)O)P(=O)(O)O [pamidronate] was tested, and the “ALP activity (per well)” value (MC3T3-E1 cells [3]; [5]) was “the alkaline phosphatase activity is inhibited or the alkaline phosphatase activity is not affected; also recorded: no significant change was observed”.

With O=P(O)(O)C(Cl)(Cl)P(=O)(O)O [clodronate] the “ALP activity (per well)” value (MC3T3-E1 cells [3]; [6]) was “increase an alkaline phosphatase activity in a dose-dependent manner and with time; also recorded: increased the ALP activity”.

In the case of CSc1ccc(SC(P(=O)([O-])[O-])P(=O)(O)O)cc1.[Na+].[Na+] [MPMBP, [4-(methylthio)phenylthio]-methanebisphosphonic acid.disodium salt], the “expression of alkaline phosphatase, type I-α collagen, osteocalcin and bone sialoprotein genes” value (MC3T3-E1 cells [2]; MPMBP 100 μM (1, 10, 100 μM tested), 3 days (72 hours) (FIG. 10)) is reported as “promoted gene expression of all of the above; also recorded: increased significantly in all genes”, the “bone changes (osteogenesis promoting effect) in the 0.1 mM group” value ([4]; 0.1 mM, 50 μl every 4 days for 6 times) is reported as “the effect was not clear” and the “bone changes, 10 mM group compared to 1.0 mM group” value ([4]; 10 mM vs 1.0 mM, 50 μl every 4 days for 6 times) is reported as “stronger for the 10 mM administration group”. The “bone addition to the palatal side of the alveolar bone (proliferation of the alveolar bone), pQCT” value [4, 7] was “a proliferation of the alveolar bone is observed; also recorded: bone addition to the palatal side of the alveolar bones”, the “thickness of the palatine bone from the alveolar site to the middle of the palate, μCT” value [4, 7] was “the thickness of the palatine bone is increasing; also recorded: the thickness of the palatine bone increased” and the “bone resorption resulting from LPS, size of the resorption cavity” value ([1]; 48 hours, LPS, vs control bone (FIG. 7)) was “the bone resorption was inhibited resulting from LPS and the size of the resorption cavity that was formed from LPS was significantly smaller; also recorded: the bone resorption was inhibited resulting from LPS and the size of the resorption cavity that was formed by LPS was significantly small”. For the same compound, the “production of the bone matrix (type I collagen, Alexa Fluor-488)” value ([1]; 48 hours, presence or absence of LPS, vs control bone (FIG. 7)) was “production of the bone matrix (sites in green color) was promoted significantly; also recorded: production of the bone matrix (sites in green color) significantly increased”, the “thickness of the bone mineral (alizarin red)” value ([1]; 48 hours, vs control bone (FIG. 7)) was “the thickness of the bone mineral (sites in red color) was thick” and the “production of the bone matrix (type I collagen)” value ([1]; MPMBP 25 μM, 48 hours, DMEM, presence or absence of LPS 10 μg/ml, vs control bone (FIG. 6)) was “production of the bone matrix (sites in red color) was promoted significantly; also recorded: production of the bone matrix (type I collagen: sites in red) significantly increased”. The “bone resorption resulting from LPS, size of the resorption cavity” value ([1]; MPMBP 25 μM, 48 hours, LPS 10 μg/ml, vs control bone (FIG. 6)) was “the bone resorption was inhibited resulting from LPS and the size of a resorption cavity that was formed from LPS was significantly smaller; also recorded: the bone resorption was inhibited resulting from LPS and the size of the resorption cavity that was formed by LPS was significantly small”, the “production of collagen (type I collagen fibers)” value ([1]; 48 hours) was “a large amount of thick collagen fibers was produced in a fascicular shape and the bone surface was densely covered” and the “concentration indicating the same level of the inhibitory action of the bone resorption in the bone organ culture system” value ([1]; bone organ culture system) was 100 µM. For the same compound, the “production of the type I collagen / bone matrix” value ([1]; 48 hours) was “significantly promoted production of the bone matrix; also recorded: significantly increased production of the bone matrix” and the “ALP activity (per well)” value (MC3T3-E1 cells [3]; [6]) was “increase an alkaline phosphatase activity in a dose-dependent manner and with time; also recorded: increased the ALP activity in a dose-dependent manner and with time”.
